Tests used:
[1] = target: T1, Dihydroorotate dehydrogenase (Plasmodium falciparum) (UniProt Q54A96); test: Inhibition of Plasmodium falciparum DHODH at 50 uM
T1 sequence (whole entry): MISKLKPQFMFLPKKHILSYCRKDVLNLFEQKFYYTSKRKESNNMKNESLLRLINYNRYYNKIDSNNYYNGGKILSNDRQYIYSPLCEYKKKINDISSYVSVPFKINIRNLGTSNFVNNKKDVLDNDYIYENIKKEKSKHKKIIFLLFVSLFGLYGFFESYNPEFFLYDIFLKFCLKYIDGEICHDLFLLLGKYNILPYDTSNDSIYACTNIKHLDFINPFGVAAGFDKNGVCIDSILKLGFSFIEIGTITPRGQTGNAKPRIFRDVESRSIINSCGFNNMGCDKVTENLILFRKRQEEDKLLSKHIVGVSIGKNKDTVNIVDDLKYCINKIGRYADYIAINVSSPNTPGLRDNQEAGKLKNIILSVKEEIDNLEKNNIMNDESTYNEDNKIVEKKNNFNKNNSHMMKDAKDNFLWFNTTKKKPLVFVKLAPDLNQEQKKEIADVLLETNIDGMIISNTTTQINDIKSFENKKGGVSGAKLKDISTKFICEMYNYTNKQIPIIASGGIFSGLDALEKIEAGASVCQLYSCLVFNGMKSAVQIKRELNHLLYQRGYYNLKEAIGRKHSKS

[2] = target: Dihydroorotate dehydrogenase (quinone), mitochondrial (Homo sapiens) (UniProt Q02127); test: Inhibition of human DHODH at 50 uM
Sequence of Dihydroorotate dehydrogenase (quinone), mitochondrial (Homo sapiens) (Q02127 whole entry): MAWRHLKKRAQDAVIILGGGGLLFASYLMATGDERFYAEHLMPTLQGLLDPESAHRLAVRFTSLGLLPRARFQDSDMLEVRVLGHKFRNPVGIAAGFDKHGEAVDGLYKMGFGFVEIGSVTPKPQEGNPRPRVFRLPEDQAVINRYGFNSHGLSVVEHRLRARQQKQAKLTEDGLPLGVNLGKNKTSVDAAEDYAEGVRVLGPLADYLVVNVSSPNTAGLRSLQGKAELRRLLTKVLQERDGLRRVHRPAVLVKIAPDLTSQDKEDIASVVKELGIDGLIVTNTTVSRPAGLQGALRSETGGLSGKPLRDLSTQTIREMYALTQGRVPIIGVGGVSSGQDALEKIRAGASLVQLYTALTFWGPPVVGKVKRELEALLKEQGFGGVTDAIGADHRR

inhibition [1] [%]	inhibition [2] [%]	SMILES
28	32	CC1(C)OC(=O)C(=CNc2ccc(C(=O)O)cc2)C(=O)O1
41	21	CC1(C)OC(=O)C(=CNc2ccc(C(=O)O)c(Cl)c2)C(=O)O1
0	1	CCOC(=O)c1cccc(NC=C2C(=O)OC(C)(C)OC2=O)c1
2	2	CCOC(=O)/C(C#N)=C\Nc1ccc(C(=O)OCC)cc1
60	8	CCOC(=O)C(=CNc1ccc(C(=O)OCC)c(Cl)c1)C(=O)OCC
39	16	CCOC(=O)C(=CNc1ccc(Cl)c(C(=O)OCC)c1)C(=O)OCC
0	29	CCOC(=O)/C(C#N)=C\Nc1ccc(C(=O)O)cc1
66	12	CCOC(=O)/C(C#N)=C\Nc1ccc(C(=O)OCC)c(Cl)c1
37	39	CCOC(=O)C(=CNc1ccc(Cl)c(C(=O)O)c1)C(=O)OCC
0	5	CCOC(=O)c1cc(NC=C2C(=O)OC(C)(C)OC2=O)ccc1Cl
25	27	CC1(C)OC(=O)C(=CNc2cccc(C(=O)O)c2)C(=O)O1
0	5	CCOC(=O)C(=CNc1cccc(C(=O)OCC)c1)C(=O)OCC
24	14	CCOC(=O)/C(C#N)=C\Nc1ccc(Cl)c(C(=O)OCC)c1
12	0	CCOC(=O)c1ccc(NC=C2C(=O)OC(C)(C)OC2=O)cc1Cl
33	39	CCOC(=O)/C(C#N)=C\Nc1ccc(C(=O)O)c(Cl)c1
50	21	CC1(C)OC(=O)C(=CNc2ccc(Cl)c(C(=O)O)c2)C(=O)O1
44	45	CCOC(=O)/C(C#N)=C\Nc1ccc(Cl)c(C(=O)O)c1
0	3	CCOC(=O)c1ccc(NC=C2C(=O)OC(C)(C)OC2=O)cc1
43	37	CCOC(=O)C(=CNc1ccc(C(=O)O)cc1)C(=O)OCC
54	33	CCOC(=O)C(=CNc1cccc(C(=O)O)c1)C(=O)OCC
15	4	CCOC(=O)C(=CNc1ccc(C(=O)OCC)cc1)C(=O)OCC
0	23	CCOC(=O)/C(C#N)=C\Nc1cccc(C(=O)O)c1
23	2	CCOC(=O)/C(C#N)=C\Nc1cccc(C(=O)OCC)c1

Reference: ChEMBL document CHEMBL1159041, “A study of the effects of substituents on the selectivity of the binding of N-arylaminomethylene malonate inhibitors to DHODH” (Bioorg Med Chem Lett, 2010)
